Tests used:
breast cancer cells = conditions: non-patent literature 5; cited from earlier work
[1] = test system: gastric tumor of K19-Wnt1/C2mE mice; test: Spontaneous gastric cancer model mice, tumor size by X-ray CT; type: in vivo, mouse; conditions: for sizes of tumors by X-ray CT (relative mean tumor area, FIG. 3): per os 3 mg/kg and 30 mg/kg once a day for five weeks, vs vehicle
Description: Among human gastric cancer patients, Wnt up-regulation is observed in 30% to 50%, and induction of COX-2 is observed in more than 70%. Therefore, the K19-Wnt1/C2mE is positioned as a mouse model which extrapolates human gastric cancer in terms of molecular mechanism (Nature Review Cancer, Volume 7, Pages 645-658, 2007).
The experiment was conducted using five spontaneous gastric cancer model mice at 50 weeks old (K19-Wnt1/C2mE mice). The mice develop large tumors in stomach at 50 weeks old, and the size of tumor can be measured with X-ray CT. The sizes of tumors were measured with X-ray CT before administration and at week 1, week 2, and week 3 after administration, and the sizes of tumors were compared. Compound A was continuously administered at a dose of 100 mg/kg twice a day for three weeks. A methyl cellulose was used as a vehicle.
Experiment was conducted using six gastric cancer model mice at 46 to 68 weeks old (K19-Wnt1/C2mE mice). Compound B was continuously administered per os at a dose of 3 mg/kg (n=2), 30 mg/kg (n=2) and vehicle control (n=2) once a day for five weeks. The measurements of tumor sizes were conducted in the same manner as example 1. It was confirmed by X-ray CT scanning that the sizes of tumors increased in a time-dependent manner during test period in two vehicle controls. […] In the FIG. 3, a relative value of the mean tumor area after treatment to that before treatment (0 w) set to 100 is shown with time. Solid square (▪) and solid diamond (♦) represent control model mice. Dotted triangle (▴) and dotted cross (X) represent model mice each administered compound B at a dose of 3 mg/kg. Solid star (*) and solid circle (●) represent model mice each administered compound B at a dose of 30 mg/kg.

[2] = test system: LL/2 (cell line derived from mouse lung cancer); test: LL/2 subcutaneously implanted to C57BL/6 mice, tumor weight; type: in vivo; conditions: vs vehicle
Description: A cell line derived from mouse lung cancer, LL/2, was subcutaneously implanted to C57BL/6 mice. (According to the method described in Cancer Research. Volume 58, Pages 2583-2587, 1998, this model extrapolates the lung cancer development and growth.) When the mean tumor weight reached 100 mg, vehicle (n=10), compound B once a day at a dose of 0.3 mg/kg (n=10), or compound C twice a day at a dose of 10 mg/kg (n=10) was administered for 25 days. The tumor weight was calculated as (major axis)×(minor axis)^2×0.5 using the measured values. […] In FIG. 5, solid square (▪), solid triangle (▴), and solid circle (●) represent a group administered vehicle (control), a group administered compound B, and a group administered compound C, respectively.

[3] = test system: colon26 (cell line derived from mouse colon cancer); test: colon26 subcutaneously implanted to CD2F1 mice, tumor weight; type: in vivo; conditions: vs vehicle
Description: A cell line derived from mouse colon cancer, colon26, was subcutaneously implanted to CD2F1 mice. (According to the method described in Int. J. Cancer, Volume 121, Pages 878-883, 2007, this model extrapolates the colon cancer development and growth in terms of molecular mechanism.) When the mean tumor weight reached 100 mg, vehicle (n=10), compound B once a day at a dose of 30 mg/kg (n=10), or compound C twice a day at a dose of 200 mg/kg (n=10) was administered for 20 days. The tumor weight was calculated as (major axis)×(minor axis)^2×0.5 using the measured values. […] In FIG. 4, solid square (▪), solid triangle (▴), and solid circle (●) represent a group administered vehicle (control), a group administered compound B, and a group administered compound C, respectively.

[4] = test system: colon cancer cell (HCA-7); conditions: non-patent literature 4; cited from earlier work
[5] = test system: intestinal polyp in APC gene knockout mice; conditions: non-patent literature 6; cited from earlier work
[6] = test system: azoxymethane-induced colon aberrant crypt foci; conditions: non-patent literature 6; cited from earlier work

O=C(O)CC/C=C\CC[C@H]1[C@H](N2CCOCC2)C(=O)C[C@H]1OCc1ccc(-c2ccccc2)cc1 [AH23848]
metastasis of breast cancer cells (breast cancer cells): metastasis suppression

C[C@H](NC(=O)c1cc(Cl)ccc1Oc1ccc(F)cc1)c1ccc(C(=O)O)cc1 [Compound A, 4-((1S)-1-{[5-chloro-2-(4-fluorophenoxy)benzoyl]amino}ethyl)benzoic Acid]
histological analysis of excised tissues after the treatment ([1]; 100 mg/kg twice a day for three weeks, visual observation): disappearance of irregular glandular branching in tumor epithelium
relative tumor volume compared with untreated mice (FIG. 2) ([1]; 100 mg/kg twice a day for three weeks, vs 55 to 60 week old untreated K19-Wnt1/C2mE mice (n=7)): tumor was shrunk effectively
tumor mass in CT images at three weeks post-administration ([1]; 100 mg/kg twice a day, all the five mice): tumor mass almost completely disappeared
tumor size in the first week (X-ray CT) ([1]; 100 mg/kg twice a day, two individuals with particularly large tumor before administration): remarkable reductions of the tumor size

C[C@H](NC(=O)c1cc(Cl)cnc1Oc1cccc(F)c1)c1ccc(C(=O)O)cc1 [Compound B]
tumor size (calculated tumor weight, FIG. 5) ([2]; 0.3 mg/kg once a day for 25 days): Remarkable reductions of tumor size
sizes of tumors by X-ray CT (relative mean tumor area, FIG. 3) [1]: reduced in a dose-dependent manner
tumor size by X-ray CT at a dose of 3 mg/kg ([1]; per os 3 mg/kg once a day for five weeks): effective reduction of tumor size
tumor lesions in autopsy ([1]; per os once a day for five weeks, compared with vehicle control group): remarkable shrinkages of tumor lesions
tumor size (calculated tumor weight, FIG. 4) ([3]; 30 mg/kg once a day for 20 days): Remarkable reductions of tumor size

CCc1nc2c(C)nc(C)cc2n1-c1ccc(CCNC(=O)NS(=O)(=O)c2ccc(C)cc2)cc1 [Compound C, 3-[2-(4-{2-ethyl-4,6-dimethyl-1H-imidazo[4,5-c]pyridin-1-yl}phenyl)ethyl]-1-[(4-methylbenzene)sulfonyl]urea]
tumor size (calculated tumor weight, FIG. 5) ([2]; 10 mg/kg twice a day for 25 days): Remarkable reductions of tumor size
sizes of tumors by X-ray CT (relative mean tumor area, FIG. 3) [1]: tumor size dramatically reduced
tumor size (calculated tumor weight, FIG. 4) ([3]; 200 mg/kg twice a day for 20 days): Remarkable reductions of tumor size

CCCCc1nn(-c2ccccc2C(F)(F)F)c(=O)n1Cc1ccc(-c2ccccc2S(=O)(=O)NC(=O)c2sccc2C)cc1 [L-161,982]
growth of colon cancer cell [4]: growth inhibition

CC(C(=O)Nc1ccccc1Cc1ccccc1C(=O)O)c1cccc2ccccc12 (centres unmarked) [ONO-AE2-227]
formation of intestinal polyp [5]: reduced formation of intestinal polyp
formation of azoxymethane-induced colon aberrant crypt foci [6]: reduced formation

CC(C(=O)Nc1cc(C#N)ccc1CCCC(=O)O)c1ccc(F)c2ccccc12 (centres unmarked) [ONO-AE3-208]
metastasis of breast cancer cells (breast cancer cells): metastasis suppression

From patent publication US11840530B2, “Selective EP4 receptor antagonistic substance for treatment of cancer” (AskAt Inc., priority 2009, dated 2023)
